Reference: ChEMBL document CHEMBL1201862, “PubChem BioAssay data set” (2004)
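Five compound concentrations were applied to cells in 96-well plates for 48 hours; endpoints were derived by simple linear interpolation of the resulting dose-response curve. GI50: concentration for 50% inhibition of growth.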 Calls of active or inactive are those of the source. Cut-off read from the data, not from the text of the source: active = GI50 up to about 1.1 µM and inactive = higher.

What was measured:
Test in all cases: growth of human tumour cells (NCI), 48 h
[1] = tested on: SF-539
[2] = tested on: EKVX
[3] = tested on: ACHN
[4] = tested on: BT-549
[5] = tested on: MDA-MB-231
[6] = tested on: SNB-75
[7] = tested on: UO-31
[8] = tested on: LOX IMVI
[9] = tested on: DU-145
[10] = tested on: 786-0
[11] = tested on: KM12
[12] = tested on: UACC-62
[13] = tested on: SW-620
[14] = tested on: MDA-N
[15] = tested on: RPMI-8226
[16] = tested on: CCRF-CEM
[17] = tested on: TK-10
[18] = tested on: M14
[19] = tested on: U-251
[20] = tested on: SK-MEL-2
[21] = tested on: HL-60
[22] = tested on: HCT-116
[23] = tested on: NCI-H460
[24] = tested on: A498
[25] = tested on: SNB-19
[26] = tested on: SR
[27] = tested on: MOLT-4
[28] = tested on: Hs-578T
[29] = tested on: HOP-92
[30] = tested on: SK-OV-3
[31] = tested on: MCF7
[32] = tested on: SK-MEL-5
[33] = tested on: OVCAR-8
[34] = tested on: RXF 393
[35] = tested on: IGROV-1
[36] = tested on: HT-29
[37] = tested on: HCT-15
[38] = tested on: NCI-H23
[39] = tested on: SF-295
[40] = tested on: NCI-H522
[41] = tested on: UACC-257
[42] = tested on: T47D
[43] = tested on: A549
[44] = tested on: OVCAR-5
[45] = tested on: COLO 205
[46] = tested on: NCI-H226
[47] = tested on: CAKI-1
[48] = tested on: OVCAR-3
[49] = tested on: OVCAR-4
[50] = tested on: SF-268
[51] = tested on: SN12C
[52] = tested on: MDA-MB-435
[53] = tested on: NCI/ADR-RES
[54] = tested on: PC-3
[55] = tested on: SK-MEL-28
[56] = tested on: K562
[57] = tested on: Malme-3M
[58] = tested on: HOP-62

C[n+]1c(-c2ccc(/C=N\N3CCN(/N=C/c4ccc(-c5cn6ccccc6[n+]5C)cc4)CC3)cc2)cn2ccccc21
GI50 [1]: 48.4 µM (inactive)
GI50 [2]: 70.8 µM (inactive)
GI50 [3]: 45.1 µM (inactive)
GI50 [4]: 35 µM (inactive)
GI50 [5]: 27.3 µM (inactive)
GI50 [6]: 39.4 µM (inactive)
GI50 [7]: > 100 µM (inactive)
GI50 [8]: > 100 µM (inactive)
GI50 [9]: 34.4 µM (inactive)
GI50 [10]: 21.9 µM (inactive)
GI50 [11]: 55.3 µM (inactive)
GI50 [12]: 33.7 µM (inactive)
GI50 [13]: 76.6 µM (inactive)
GI50 [14]: 36.2 µM (inactive)
GI50 [15]: 20.9 µM (inactive)
GI50 [16]: 34.2 µM (inactive)
GI50 [17]: 63.4 µM (inactive)
GI50 [18]: 48.4 µM (inactive)
GI50 [19]: 27.1 µM (inactive)
GI50 [20]: 56.8 µM (inactive)
GI50 [21]: 21.2 µM (inactive)
GI50 [22]: 70.8 µM (inactive)
GI50 [23]: 58.6 µM (inactive)
GI50 [24]: 16.2 µM (inactive)
GI50 [25]: 32 µM (inactive)
GI50 [26]: 30.7 µM (inactive)
GI50 [27]: 68.7 µM (inactive)
GI50 [28]: 29.3 µM (inactive)
GI50 [29]: 26.4 µM (inactive)
GI50 [30]: > 100 µM (inactive)
GI50 [31]: > 100 µM (inactive)
GI50 [32]: 17.8 µM (inactive)
GI50 [33]: > 100 µM (inactive)
GI50 [34]: 24.5 µM (inactive)
GI50 [35]: 57.9 µM (inactive)
GI50 [36]: > 100 µM (inactive)
GI50 [37]: 88.3 µM
GI50 [38]: 27.8 µM (inactive)
GI50 [39]: 19.1 µM (inactive)
GI50 [40]: 83.9 µM (inactive)
GI50 [41]: 5.24 µM (inactive)
GI50 [42]: 34.9 µM (inactive)
GI50 [43]: > 100 µM (inactive)
GI50 [44]: > 100 µM (inactive)
GI50 [45]: 27.1 µM (inactive)
GI50 [46]: 33 µM (inactive)
GI50 [47]: 20.5 µM (inactive)
GI50 [48]: > 100 µM (inactive)
GI50 [49]: 74.6 µM (inactive)
GI50 [50]: 48.2 µM (inactive)
GI50 [51]: 54.5 µM (inactive)
GI50 [52]: 34.5 µM (inactive)
GI50 [53]: > 100 µM (inactive)
GI50 [54]: > 100 µM (inactive)

COc1c(Cl)ccc(Cl)c1C(=O)NNC(=O)c1c(Cl)c(Cl)c(Cl)c(Cl)c1-c1nc2cc(C(=O)c3ccccc3)ccc2[nH]1
GI50 [1]: > 100 µM (inactive)
GI50 [2]: 36.8 µM (inactive)
GI50 [3]: 37.5 µM (inactive)
GI50 [4]: 67.3 µM (inactive)
GI50 [5]: 37.6 µM (inactive)
GI50 [6]: > 100 µM (inactive)
GI50 [7]: 60.4 µM (inactive)
GI50 [8]: 55.1 µM (inactive)
GI50 [9]: > 100 µM (inactive)
GI50 [10]: 72.4 µM (inactive)
GI50 [11]: 80.5 µM (inactive)
GI50 [13]: > 100 µM (inactive)
GI50 [14]: 33.3 µM (inactive)
GI50 [15]: 24.2 µM (inactive)
GI50 [16]: 28.8 µM (inactive)
GI50 [17]: 72.3 µM (inactive)
GI50 [18]: 52.6 µM (inactive)
GI50 [19]: 53.2 µM (inactive)
GI50 [20]: 31.9 µM (inactive)
GI50 [21]: 50.5 µM (inactive)
GI50 [55]: 84.7 µM (inactive)
GI50 [22]: 66.7 µM (inactive)
GI50 [24]: 61.2 µM (inactive)
GI50 [25]: > 100 µM (inactive)
GI50 [56]: 26.7 µM (inactive)
GI50 [26]: 37.2 µM (inactive)
GI50 [27]: 20.6 µM (inactive)
GI50 [28]: 54.1 µM (inactive)
GI50 [29]: 52.6 µM (inactive)
GI50 [30]: > 100 µM (inactive)
GI50 [31]: 44.4 µM (inactive)
GI50 [32]: 25.2 µM (inactive)
GI50 [33]: 72.9 µM (inactive)
GI50 [34]: 19.5 µM (inactive)
GI50 [35]: 31 µM (inactive)
GI50 [36]: 62.1 µM (inactive)
GI50 [37]: 35 µM
GI50 [38]: 64.1 µM (inactive)
GI50 [39]: 34.9 µM (inactive)
GI50 [40]: 33.1 µM (inactive)
GI50 [41]: 76.6 µM (inactive)
GI50 [42]: 15.5 µM (inactive)
GI50 [43]: 56 µM (inactive)
GI50 [44]: > 100 µM (inactive)
GI50 [45]: 47.4 µM (inactive)
GI50 [46]: 45.6 µM (inactive)
GI50 [47]: 95.3 µM (inactive)
GI50 [48]: 30.5 µM (inactive)
GI50 [49]: 44.9 µM (inactive)
GI50 [57]: 54.3 µM (inactive)
GI50 [58]: 82 µM (inactive)
GI50 [50]: 34.3 µM (inactive)
GI50 [51]: 70.8 µM (inactive)
GI50 [52]: 42.9 µM (inactive)
GI50 [53]: > 100 µM (inactive)
GI50 [54]: 37.8 µM (inactive)

O=C(O)c1c(-c2nccc3ccccc23)[nH]c(-c2ccccc2)c1S(=O)(=O)O
GI50 [1]: > 100 µM (inactive)
GI50 [2]: 21.8 µM (inactive)
GI50 [3]: > 100 µM (inactive)
GI50 [4]: > 100 µM (inactive)
GI50 [5]: > 100 µM (inactive)
GI50 [6]: > 100 µM (inactive)
GI50 [7]: > 100 µM (inactive)
GI50 [8]: > 100 µM (inactive)
GI50 [9]: > 100 µM (inactive)
GI50 [10]: > 100 µM (inactive)
GI50 [11]: > 100 µM (inactive)
GI50 [12]: > 100 µM (inactive)
GI50 [13]: > 100 µM (inactive)
GI50 [14]: > 100 µM (inactive)
GI50 [15]: > 100 µM (inactive)
GI50 [16]: > 100 µM (inactive)
GI50 [17]: > 100 µM (inactive)
GI50 [18]: > 100 µM (inactive)
GI50 [19]: > 100 µM (inactive)
GI50 [20]: > 100 µM (inactive)
GI50 [21]: 41.8 µM (inactive)
GI50 [55]: > 100 µM (inactive)
GI50 [22]: > 100 µM (inactive)
GI50 [23]: > 100 µM (inactive)
GI50 [24]: > 100 µM (inactive)
GI50 [25]: > 100 µM (inactive)
GI50 [26]: > 100 µM (inactive)
GI50 [27]: 47.6 µM (inactive)
GI50 [28]: > 100 µM (inactive)
GI50 [29]: > 100 µM (inactive)
GI50 [30]: > 100 µM (inactive)
GI50 [31]: > 100 µM (inactive)
GI50 [32]: > 100 µM (inactive)
GI50 [33]: > 100 µM (inactive)
GI50 [34]: > 100 µM (inactive)
GI50 [35]: > 100 µM (inactive)
GI50 [36]: > 100 µM (inactive)
GI50 [37]: > 100 µM
GI50 [38]: > 100 µM (inactive)
GI50 [39]: > 100 µM (inactive)
GI50 [40]: > 100 µM (inactive)
GI50 [41]: > 100 µM (inactive)
GI50 [42]: > 100 µM (inactive)
GI50 [43]: > 100 µM (inactive)
GI50 [44]: > 100 µM (inactive)
GI50 [45]: > 100 µM (inactive)
GI50 [46]: > 100 µM (inactive)
GI50 [47]: > 100 µM (inactive)
GI50 [48]: > 100 µM (inactive)
GI50 [49]: > 100 µM (inactive)
GI50 [57]: > 100 µM (inactive)
GI50 [58]: > 100 µM (inactive)
GI50 [50]: > 100 µM (inactive)
GI50 [51]: > 100 µM (inactive)
GI50 [52]: > 100 µM (inactive)
GI50 [53]: > 100 µM (inactive)
GI50 [54]: > 100 µM (inactive)

Cc1cc(-c2cc(C(C)(C)C)c(O)c(C(C)(C)C)c2)c(C)cc1-c1cc(C(C)(C)C)c(O)c(C(C)(C)C)c1
GI50 [1]: > 100 µM (inactive)
GI50 [2]: > 100 µM (inactive)
GI50 [3]: > 100 µM (inactive)
GI50 [4]: > 100 µM (inactive)
GI50 [5]: > 100 µM (inactive)
GI50 [6]: > 100 µM (inactive)
GI50 [7]: > 100 µM (inactive)
GI50 [8]: > 100 µM (inactive)
GI50 [9]: > 100 µM (inactive)
GI50 [10]: > 100 µM (inactive)
GI50 [11]: > 100 µM (inactive)
GI50 [12]: > 100 µM (inactive)
GI50 [13]: > 100 µM (inactive)
GI50 [14]: > 100 µM (inactive)
GI50 [15]: > 100 µM (inactive)
GI50 [16]: > 100 µM (inactive)
GI50 [17]: > 100 µM (inactive)
GI50 [18]: > 100 µM (inactive)
GI50 [19]: > 100 µM (inactive)
GI50 [20]: > 100 µM (inactive)
GI50 [21]: > 100 µM (inactive)
GI50 [55]: > 100 µM (inactive)
GI50 [22]: > 100 µM (inactive)
GI50 [24]: 27.3 µM (inactive)
GI50 [25]: > 100 µM (inactive)
GI50 [56]: > 100 µM (inactive)
GI50 [26]: 41.2 µM (inactive)
GI50 [27]: > 100 µM (inactive)
GI50 [28]: > 100 µM (inactive)
GI50 [29]: 12.1 µM (inactive)
GI50 [30]: > 100 µM (inactive)
GI50 [31]: > 100 µM (inactive)
GI50 [32]: > 100 µM (inactive)
GI50 [33]: > 100 µM (inactive)
GI50 [35]: > 100 µM (inactive)
GI50 [36]: > 100 µM (inactive)
GI50 [37]: > 100 µM
GI50 [38]: > 100 µM (inactive)
GI50 [39]: > 100 µM (inactive)
GI50 [40]: > 100 µM (inactive)
GI50 [41]: > 100 µM (inactive)
GI50 [42]: > 100 µM (inactive)
GI50 [43]: > 100 µM (inactive)
GI50 [44]: > 100 µM (inactive)
GI50 [45]: > 100 µM (inactive)
GI50 [46]: > 100 µM (inactive)
GI50 [47]: > 100 µM (inactive)
GI50 [48]: > 100 µM (inactive)
GI50 [49]: > 100 µM (inactive)
GI50 [57]: > 100 µM (inactive)
GI50 [58]: > 100 µM (inactive)
GI50 [50]: > 100 µM (inactive)
GI50 [51]: > 100 µM (inactive)
GI50 [52]: 13.6 µM (inactive)
GI50 [53]: > 100 µM (inactive)
GI50 [54]: > 100 µM (inactive)
